{
  "source": "patent US20260240885A1",
  "about": "“PHOSPHORYLATED HEXAACYL DISACCHARIDES FOR TREATING OR PREVENTING ACUTE KIDNEY INJURY” (VANDERBILT UNIVERSITY, priority 2022, published 2026)",
  "key": {"bilateral IRI-AKI": {"tested_on": "bilateral IRI-AKI", "experiment": "Bilateral IRI-AKI (bilateral renal pedicle clamping 24 min) in mice pretreated with PHAD", "format": "in vivo, mouse (male BALB/c)", "procedure": "(§1) A blinded, randomized controlled study in mice, assessed the efficacy of intravenous 3D 6-Acyl phosphorylated hexa-acyl disaccharide (PHAD, a de novo ultrapure synthetic toll-like receptor 4 agonist), to protect against IRI-AKI. Two cohorts of male BALB/c mice received intraperitoneal vehicle or PHAD (10, 20, or 40 μg); or intravenous vehicle or PHAD (2, 20, or 200 μg) at 48 and 24 hours prior to unilateral renal pedicle clamping and simultaneous contralateral nephrectomy (unilateral IRI-AKI). In a separate cohort, mice were treated with vehicle or 200 μg of PHAD followed by bilateral IRI-AKI. Mice were monitored for 3 days after reperfusion and euthanized.\n(§2) Kidney function was assessed by blood urea nitrogen (BUN) and serum creatinine measurements. Kidney tubular injury was assessed by semi-quantitative analysis of tubular morphology on PAS-stained kidney sections, and kidney mRNA quantification of injury (N-Gal, Kim-1 and HO-1) and inflammation (IL-6, IL-1b and TNF-α) using qRT-PCR technique. Additional studies were conducted using immunohistochemistry to quantify Kim-1 and F4/80 protein to assess kidney injury and macrophages, respectively. […] Histological injury and N-Gal mRNA were lower, and IL-1b mRNA higher in 200 μg 3D 6-Acyl PHAD treated mice.\n(§3) Ischemia Reperfusion Induced Acute Kidney Injury. Male BALB/c mice, 10- to 11-weeks old (22 to 25 g) were purchased from Charles River (Hollister, CA), and were allowed to acclimate for one week prior to studies. IRI-AKI surgery was performed under ketamine/xylazine anesthesia (120 mg/kg [3 mg ketamine], 12 mg/kg [0.3 mg] xylazine) administered in 100 μl sterile saline by intraperitoneal (IP) injection. Mice underwent two types of surgery to induce IRI-AKI. Unilateral IRI-AKI with contralateral nephrectomy (unilateral IRI), and in separate cohorts, bilateral IRI-AKI. For unilateral IRI, the mouse was placed prone on a heat pad set to 37° C., and incisions were made in the muscle and skin to exteriorize the right kidney for nephrectomy. The adrenal gland was displaced from the kidney, and 5-0 silk suture (Ethicon, LA53G) was tied around the renal artery, vein, and ureter with a double surgical knot, before the kidney was removed by cutting distally to the knot. The left kidney was then exteriorized, and fat and connective tissue were dissected from the renal pedicle to expose the renal artery and vein. A vascular clamp (Roboz, cat #RS-5459) was applied to the renal vasculature for 28 minutes. The kidney was tucked back under the skin and the mouse was kept warm on the heat pad during the 28 minutes of ischemia time. For bilateral IRI-AKI, mice underwent bilateral renal artery ischemia for 24 minutes without nephrectomy. Successful ischemia was confirmed by a dark purple appearance of the kidney prior to clamp removal, and successful reperfusion was confirmed by a return to the normal pink color of the kidney within 1-2 min of clamp removal. Upon removing the vascular clamp, the muscle wall was closed with 6-0 absorbable suture (Ethicon, J492G) followed by skin closure with 7 mm wound clips (Roboz, RS-9255, RS-9250). Upon skin closure, mice received 0.5 ml of warm sterile saline subcutaneous (SQ) immediately after surgery, and at 24 hours after surgery. Analgesia was provided with buprenorphine SQ immediately after surgery and every 12 hours for 3 days. Sham operated mice underwent the same surgical approaches (for unilateral IRI-AKI, they underwent right nephrectomy, but the left renal pedicle was not clamped, and for bilateral IRI-AKI, both kidneys were exteriorized but the renal pedicles were not clamped). Blood was collected at baseline (prior to injury), and days 1 and 3 after injury by submandibular vein puncture into a lithium-heparin coated microcuvette tubes, and plasma frozen at −80° C. for blood urea nitrogen (BUN) and creatinine assays. […]"}, "unilateral IRI-AKI": {"tested_on": "unilateral IRI-AKI", "experiment": "Unilateral IRI-AKI (left renal pedicle clamping 28 min with contralateral nephrectomy) in mice pretreated with PHAD", "format": "in vivo, mouse (male BALB/c)", "procedure": "as §1, §2, §3"}, "[1]": {"conditions": "IV PHAD 200 μg/mouse 48 and 24 h before injury, 24 and 72 hours after bilateral IRI-AKI (FIG. 2A)"}, "[2]": {"conditions": "IV PHAD 200 μg/mouse vs vehicle, Day 3 (FIG. 2F)"}, "[3]": {"conditions": "IV PHAD 200 μg/mouse vs vehicle, Day 3 (FIG. 3)"}, "[4]": {"conditions": "IV PHAD 2, 20, 200 μg/mouse 48 and 24 h before injury, vs vehicle, post-injury day 1 and 3 (FIG. 1A)"}},
  "note": "“Also recorded” adds a separate entry of the source.",
  "data": [
    {"smiles": "CCCCCCCCCCCCCC(=O)OC(CCCCCCCCCCC)CC(=O)NC1C(O)OC(COC2OC(CO)C(OP(=O)(O)O)C(OC(=O)CC(CCCCCCCCCCC)OC(=O)CCCCCCCCCCCCC)C2NC(=O)CC(CCCCCCCCCCC)OC(=O)CCCCCCCCCCCCC)C(O)C1O.N", "note": "(stereo not shown) [PHAD, monophosphoryl hexa-acyl Lipid A, 3-Deacyl 6-acyl phosphorylated hexa-acyl disaccharide]", "values": [
      {"measurement": "BUN levels", "setting": "bilateral IRI-AKI; [1]", "result": "reduced"},
      {"measurement": "creatinine levels", "setting": "bilateral IRI-AKI; [1]", "result": "reduced"},
      {"measurement": "3-day survival", "setting": "bilateral IRI-AKI; IV PHAD 200 μg/mouse vs vehicle (FIG. 6)", "result": "no difference in survival"},
      {"measurement": "renal IL-1β mRNA (qRT-PCR)", "setting": "bilateral IRI-AKI; [2]", "result": "increased"},
      {"measurement": "renal IL-6 mRNA (qRT-PCR)", "setting": "bilateral IRI-AKI; [2]", "result": "no differences"},
      {"measurement": "renal Kim-1 mRNA (qRT-PCR)", "setting": "bilateral IRI-AKI; [2]", "result": "no differences"},
      {"measurement": "renal N-Gal mRNA (qRT-PCR)", "setting": "bilateral IRI-AKI; [2]", "result": "lower levels"},
      {"measurement": "renal Tnf-α mRNA (qRT-PCR)", "setting": "bilateral IRI-AKI; [2]", "result": "no differences"},
      {"measurement": "F4/80 staining for renal macrophages", "setting": "bilateral IRI-AKI; [3]", "result": "no difference in F4/80 staining"},
      {"measurement": "area of cells expressing Kim-1 protein (immunostaining), outer medulla", "setting": "bilateral IRI-AKI; [3]", "result": "significant reduction; also recorded: significantly reduced"},
      {"measurement": "renal expression of Ho-1 mRNA (qRT-PCR)", "setting": "bilateral IRI-AKI; IV PHAD 200 μg/mouse vs vehicle, Day 3 (FIG. 4A)", "result": "reduced"},
      {"measurement": "renal Irf-1 mRNA (qRT-PCR)", "setting": "bilateral IRI-AKI; IV PHAD 200 μg/mouse vs vehicle, Day 3 (FIG. 4B)", "result": "no differences in expression"},
      {"measurement": "renal Ccl-2 mRNA (qRT-PCR)", "setting": "bilateral IRI-AKI; IV PHAD 200 μg/mouse vs vehicle, Day 3 (FIG. 4C)", "result": "no differences in expression"},
      {"measurement": "renal Ccl-3 mRNA (qRT-PCR)", "setting": "bilateral IRI-AKI; IV PHAD 200 μg/mouse vs vehicle, Day 3 (FIG. 4D)", "result": "no differences in expression"},
      {"measurement": "tubular injury (PAS-stained sections, outer stripe of outer medulla)", "setting": "bilateral IRI-AKI; IV PHAD 200 μg/mouse, Day 3 (FIGS. 2B, 2D)", "result": "reduced tubular injury"},
      {"measurement": "apoptosis (TUNEL, outer stripe of outer medulla)", "setting": "bilateral IRI-AKI; IV PHAD 200 μg/mouse, Day 3 (FIGS. 2C, 2E)", "result": "reduced apoptosis"},
      {"measurement": "Histological injury", "setting": "unilateral IRI-AKI; 200 μg (Example 1)", "result": "lower"},
      {"measurement": "IL-1b mRNA", "setting": "unilateral IRI-AKI; 200 μg (Example 1)", "result": "higher"},
      {"measurement": "renal Kim-1 mRNA expression (qRT-PCR)", "setting": "unilateral IRI-AKI; 200 μg PHAD, Day 3 (FIG. 1E)", "result": "no reduction"},
      {"measurement": "renal N-Gal mRNA expression (qRT-PCR)", "setting": "unilateral IRI-AKI; 200 μg PHAD, Day 3 (FIG. 1E)", "result": "reduction in expression"},
      {"measurement": "renal N-Gal mRNA expression (qRT-PCR)", "setting": "unilateral IRI-AKI; 200 μg PHAD, Day 3 (FIG. 1E), listed as 3D 6-Acyl PHAD", "result": "lower"},
      {"measurement": "survival compared with the vehicle control group", "setting": "unilateral IRI-AKI; 2 and 20 μg pretreatment dose (FIG. 1D)", "result": "more mice survived"},
      {"measurement": "BUN levels", "setting": "unilateral IRI-AKI; [4]", "result": "reduced elevations"},
      {"measurement": "creatinine levels", "setting": "unilateral IRI-AKI; [4]", "result": "reduced elevations"},
      {"measurement": "renal IL-1β mRNA (qRT-PCR)", "setting": "unilateral IRI-AKI; IV PHAD 2, 20, 200 μg/mouse vs vehicle control (FIG. 1E)", "result": "dose-dependent increase"},
      {"measurement": "3-day survival", "setting": "unilateral IRI-AKI; IV PHAD 2, 20, 200 μg/mouse vs vehicle, log-rank test (FIG. 1D)", "result": "no significant improvement in survival"},
      {"measurement": "tubular injury in the cortex and OSOM (PAS-stained sections)", "setting": "unilateral IRI-AKI; IV PHAD, increasing doses, Day 3 after injury (FIGS. 1B, 1C)", "result": "reduced tubular injury"},
      {"measurement": "renal function", "setting": "unilateral IRI-AKI; pretreatment with PHAD at 48 and 24 h before unilateral IRI-AKI (Example 1)", "result": "dose-dependent preservation of renal function"}
    ]}
  ]
}
